T1: HsCSAD (Homo sapiens, UniProt Q9Y600)
T1 sequence (Q9Y600 1-493): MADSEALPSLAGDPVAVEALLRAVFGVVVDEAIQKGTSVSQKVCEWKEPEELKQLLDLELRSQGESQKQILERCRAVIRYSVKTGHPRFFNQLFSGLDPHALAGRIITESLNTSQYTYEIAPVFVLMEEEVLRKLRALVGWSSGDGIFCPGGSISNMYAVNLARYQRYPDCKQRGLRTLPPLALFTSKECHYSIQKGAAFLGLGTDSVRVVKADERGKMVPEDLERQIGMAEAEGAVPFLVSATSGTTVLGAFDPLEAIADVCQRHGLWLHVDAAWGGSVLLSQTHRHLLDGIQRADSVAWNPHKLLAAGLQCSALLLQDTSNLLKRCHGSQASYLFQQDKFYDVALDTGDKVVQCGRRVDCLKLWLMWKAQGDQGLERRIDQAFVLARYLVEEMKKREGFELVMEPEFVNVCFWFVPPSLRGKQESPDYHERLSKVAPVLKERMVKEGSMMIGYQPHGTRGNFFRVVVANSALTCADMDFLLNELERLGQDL

T2: DrCSAD (Danio rerio, UniProt A0A8M1N2X8)
T2 sequence (A0A8M1N2X8 1-500): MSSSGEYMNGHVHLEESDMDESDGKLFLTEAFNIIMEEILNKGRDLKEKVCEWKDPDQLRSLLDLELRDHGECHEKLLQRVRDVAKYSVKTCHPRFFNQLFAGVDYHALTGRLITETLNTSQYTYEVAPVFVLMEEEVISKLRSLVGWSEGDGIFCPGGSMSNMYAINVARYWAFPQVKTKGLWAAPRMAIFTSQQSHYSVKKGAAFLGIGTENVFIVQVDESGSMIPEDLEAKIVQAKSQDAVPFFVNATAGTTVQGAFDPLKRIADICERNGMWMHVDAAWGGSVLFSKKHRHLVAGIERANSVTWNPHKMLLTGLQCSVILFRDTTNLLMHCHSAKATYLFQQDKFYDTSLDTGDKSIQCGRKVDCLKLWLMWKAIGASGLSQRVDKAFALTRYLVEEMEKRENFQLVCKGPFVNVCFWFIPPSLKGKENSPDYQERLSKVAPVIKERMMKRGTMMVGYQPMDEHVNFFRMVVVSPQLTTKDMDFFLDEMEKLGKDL

B1: GgCAD (Gallus gallus) (protein)
chain: MAEQSDLERPAVDGAAGEEFLRAAFQVLLEEAVRKGTDVAQKVCEWKEPHELRELLDLELRSHGEPAGRLLERCRDIIRYSVKTCHPRFFNQLFSGLDHHALAGRLLTETLNTSQYTYEIAPVFVLMEEVVLAKLRELVGWNSGDGIFCPGGSISNMYAMNVARFQRFPESRQQGSRALPRLVLFASEECHYSIQKGAAFLGIGTDNVVLVRADERGKMIPEELEKEIERVKSEGAVPFFVSATSGTTVLGAFDPLGPVADVCQRHGLWLHVDAAWGGSALLSRKHRQLLAGIERADSVAWNPHKMLTVGLQCSAFLLRDDSGLLQRCHGAGAAYLFQPDKFYDVMFDTGDKTVQCGRRVDCLKLWLLWKAVGSEGLEQRVDRAFACTSYLAAEMKRRDGFQLVLEPEFINLCFWFVPPSLRGQQGCTDFGPRLGKVAPAIKERMMKEGSMMVGYQPHGTRPNFFRQIVTSPAVTRADLDFFLDEIERLGCDL

Assays:
[1] = target: T1, HsCSAD; assay: 1H NMR product quantification, specific activity; type: biochemical; conditions: 5 min reaction stopped with 1 M HCl, pH 7.0, 25 C; preferred substrate
[2] = target: T2, DrCSAD; assay: 1H NMR product quantification, specific activity; type: biochemical; conditions: 5 min reaction stopped with 1 M HCl, pH 7.0, 25 C; preferred substrate
[3] = substrate: N[C@@H](CS(=O)(=O)O)C(=O)O; assay: time-resolved 1H NMR, integrated Michaelis-Menten fit of progress curve; type: biochemical, Gallus gallus; conditions: 50 mM NaH2PO4 pH 7.0, 25 C, H2O:D2O 9:1, example time course

Row | Molecule | specific activity [1] | specific activity [2] | Km [3] [mM]
1 | N[C@@H](CS(=O)O)C(=O)O [CSA, cysteine sulfinic acid] | We confirmed the opposite preference for the CSA substrate in human CSAD | observed the same preference for CSA in a CSAD ortholog of a basal vertebrate | –
2 | B1 | – | – | 6.95 ± 3.23

— article PMC8364350 (Nature ecology & evolution, 2020)
